In patent US20260078135A1, “POLYCYCLIC QUINAZOLINES FOR INHIBITION OF ERBB2” (Enliven Inc., priority 2022, published 2026):

Experiments:
[1] = molecular target: T1, phosphorylated ERBB2 (pERBB2) (Homo sapiens, UniProt P04626); assay: Detection of phosphorylated ERBB2 (pERBB2) by ELISA in BT-474 cells; format: cell-based; conditions: four hour incubation
T1 construct: endogenous in cells; host or cells: BT-474
Protocol: BT-474 cells were seeded into a 96-well at 2.0*10^4 cells/100 μl/well. Compounds were dissolved and serially diluted in DMSO. The compounds were then were added, mixed, and incubated for four hours at 37° C., 5% CO2. Compounds were added using four-fold dilutions at final concentrations ranging from 10 μM to 0.01 nM. Following the four hour incubation with compounds, cell lysates were prepared. Plates were centrifuged for 5 μmin at 3000 RPM, and supernatant was removed from each well. Cells were washed 3 times by resuspension in 150 μl PBS, followed by centrifugation and removal of the supernatant, as above. 100 μl of cell lysis buffer (Boston BioProducts, cat #BP-115D) supplied with 1× complete ULTRA cocktail inhibitor (Thermo ScientificTM, cat #78443) was then added to the washed cells. Cells were incubated with lysis buffer for 1 hour at 4° C., and then stored at -80° C. Enzyme-linked immunosorbent assays (ELISA) were performed to measure phosphorylated ERBB2 levels. […] The next day, plates were washed with PBS+0.05% Tween20 (PBST). 150 μl of 5% BSA blocking solution was added for 1 hour at room temperature, with shaking. Plates were washed with PBST. Cell lysates were thawed and 100 μl of lysate was added to the ELISA plate. The plates were incubated for 2 hours at room temperature, with shaking. ELISA plates were then washed with PBST and 100 μl of an HRP-labeled detection antibody that binds phosphorylated tyrosine (R&D Systems, cat #841913) was added to each well. Plates were incubated for 1 hour at room temperature, with shaking. Plates were then washed with PBST, and 100 μl TMB substrate solution (R&D Systems, cat #DY999) was added. Plate were incubated in the dark for 20 minutes at room temperature. 50 μl of Stop solution (R&D Systems, cat #DY994) (50 μl) was added to each well and mixed. Optical density at 450 nm was read on an EnSpire plate reader (Perkin Elmer). The remaining kinase activity by calculated using the following formula: % Relative activity=100×([…]). The low and high control values (“LC” and “HC”) were generated from lysate from wells without cells or with cells treated with 0.1% DMSO, respectively.

[2] = molecular target: T2, phosphorylated EGFR (pEGFR) (Homo sapiens, UniProt P00533); assay: Detection of phosphorylated EGFR (pEGFR) by AlphaLISA in EGF-stimulated A431 cells; format: cell-based; conditions: A431 cells (10% FBS), 4 hours incubation, EGF 30 ng/mL for 10 minutes
T2 construct: performed to measure phosphorylated EGFR levels using A431 cells (10% FBS); endogenous in cells; host or cells: A431
T2 sequence (P00533 25-1210): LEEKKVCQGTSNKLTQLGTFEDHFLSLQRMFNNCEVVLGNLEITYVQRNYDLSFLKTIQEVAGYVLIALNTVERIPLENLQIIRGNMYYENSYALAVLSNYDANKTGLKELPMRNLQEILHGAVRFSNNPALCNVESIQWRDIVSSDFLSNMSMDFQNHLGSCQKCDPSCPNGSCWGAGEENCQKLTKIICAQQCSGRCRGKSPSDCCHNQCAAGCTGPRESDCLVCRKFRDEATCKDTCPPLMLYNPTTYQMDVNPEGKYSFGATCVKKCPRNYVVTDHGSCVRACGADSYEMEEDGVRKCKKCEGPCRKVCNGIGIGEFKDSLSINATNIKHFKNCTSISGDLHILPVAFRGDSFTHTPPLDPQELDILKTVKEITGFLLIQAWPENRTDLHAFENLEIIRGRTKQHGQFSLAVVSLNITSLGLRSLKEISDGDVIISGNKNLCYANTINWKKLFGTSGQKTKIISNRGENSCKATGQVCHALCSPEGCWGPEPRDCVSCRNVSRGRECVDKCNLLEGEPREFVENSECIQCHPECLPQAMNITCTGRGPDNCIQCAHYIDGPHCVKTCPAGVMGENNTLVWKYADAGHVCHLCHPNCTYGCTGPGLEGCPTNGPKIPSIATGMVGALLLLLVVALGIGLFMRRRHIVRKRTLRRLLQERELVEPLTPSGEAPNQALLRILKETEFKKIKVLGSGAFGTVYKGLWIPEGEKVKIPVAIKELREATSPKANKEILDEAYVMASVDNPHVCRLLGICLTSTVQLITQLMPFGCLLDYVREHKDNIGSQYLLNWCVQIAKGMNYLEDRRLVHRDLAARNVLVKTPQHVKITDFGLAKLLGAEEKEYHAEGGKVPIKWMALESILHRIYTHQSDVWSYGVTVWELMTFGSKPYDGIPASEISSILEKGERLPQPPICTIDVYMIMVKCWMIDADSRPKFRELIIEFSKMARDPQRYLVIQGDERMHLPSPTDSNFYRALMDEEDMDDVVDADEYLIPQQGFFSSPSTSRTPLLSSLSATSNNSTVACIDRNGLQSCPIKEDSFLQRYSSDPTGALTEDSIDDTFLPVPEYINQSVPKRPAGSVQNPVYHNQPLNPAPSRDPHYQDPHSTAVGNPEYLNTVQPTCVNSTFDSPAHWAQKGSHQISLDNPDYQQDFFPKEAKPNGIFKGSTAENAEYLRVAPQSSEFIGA
Protocol: Enzyme-linked immunosorbent assays (ELISA) were performed to measure phosphorylated EGFR levels using A431 cells (10% FBS). A431 (1.0*10^4 cells/40 μl/well) cells were seeded in 384 well. Compounds were dissolved in DMSO, serially diluted in DMSO and then were added, mixed, and incubated for 4 hours at 37° C., 5% C02. Following the 4-hours incubation, cells were stimulated for 10 minutes with EGF (Invitrogen, cat #PHG0311) at a final concentration of 30 ng/mL in the incubator. The media was aspirated and cells were lysed in 10 μL lysis buffer with protease and phosphatase inhibitors (PerkinElmer, cat #ALSU-PEGFR-A50K). The plates were placed on a shaker for 5 μminutes and then incubated for 30 min at 4° C. for complete lysis. The lysate was transferred to an Optiplate (Perkin Elmer, cat #6007290).
Acceptor mix (PerkinElmer, cat #ALSU-PEGFR-A50K) was prepared just before use and 5 μL was dispensed to all the wells, followed by a 1.5-2 h incubation at room temperature in dark. The donor mix (PerkinElmer, cat #ALSU-PEGFR-A50K) was prepared under low light conditions prior to use and 5 μl of donor mix was added to all the wells under subdued lighting or green filters. The plates were placed on a shaker for 5 μmin, sealed, and incubated overnight at room temperature in dark. Plates were read on the Envision (PerkinElmer) using standard AlphaLISA settings.
The percentage of inhibition on EGFR phosphorylation was calculated following equation: % Inhibition=100×(LumHC−LumSample)/(LumHC−LumLC). The low and high controls (LC/HC) are generated from lysate from wells with cells treated with DMSO or […] Staurosporine (BioAustralis, cat #BIA-S1086), […]. IC50 values were calculated by fitting the Curve using XLfit (v5.3.1.3), equation 201: Y=Bottom+(Top−Bottom)/(1+10^((Log IC50−X)*HillSlope)).

T1 sequence (P04626 23-1255): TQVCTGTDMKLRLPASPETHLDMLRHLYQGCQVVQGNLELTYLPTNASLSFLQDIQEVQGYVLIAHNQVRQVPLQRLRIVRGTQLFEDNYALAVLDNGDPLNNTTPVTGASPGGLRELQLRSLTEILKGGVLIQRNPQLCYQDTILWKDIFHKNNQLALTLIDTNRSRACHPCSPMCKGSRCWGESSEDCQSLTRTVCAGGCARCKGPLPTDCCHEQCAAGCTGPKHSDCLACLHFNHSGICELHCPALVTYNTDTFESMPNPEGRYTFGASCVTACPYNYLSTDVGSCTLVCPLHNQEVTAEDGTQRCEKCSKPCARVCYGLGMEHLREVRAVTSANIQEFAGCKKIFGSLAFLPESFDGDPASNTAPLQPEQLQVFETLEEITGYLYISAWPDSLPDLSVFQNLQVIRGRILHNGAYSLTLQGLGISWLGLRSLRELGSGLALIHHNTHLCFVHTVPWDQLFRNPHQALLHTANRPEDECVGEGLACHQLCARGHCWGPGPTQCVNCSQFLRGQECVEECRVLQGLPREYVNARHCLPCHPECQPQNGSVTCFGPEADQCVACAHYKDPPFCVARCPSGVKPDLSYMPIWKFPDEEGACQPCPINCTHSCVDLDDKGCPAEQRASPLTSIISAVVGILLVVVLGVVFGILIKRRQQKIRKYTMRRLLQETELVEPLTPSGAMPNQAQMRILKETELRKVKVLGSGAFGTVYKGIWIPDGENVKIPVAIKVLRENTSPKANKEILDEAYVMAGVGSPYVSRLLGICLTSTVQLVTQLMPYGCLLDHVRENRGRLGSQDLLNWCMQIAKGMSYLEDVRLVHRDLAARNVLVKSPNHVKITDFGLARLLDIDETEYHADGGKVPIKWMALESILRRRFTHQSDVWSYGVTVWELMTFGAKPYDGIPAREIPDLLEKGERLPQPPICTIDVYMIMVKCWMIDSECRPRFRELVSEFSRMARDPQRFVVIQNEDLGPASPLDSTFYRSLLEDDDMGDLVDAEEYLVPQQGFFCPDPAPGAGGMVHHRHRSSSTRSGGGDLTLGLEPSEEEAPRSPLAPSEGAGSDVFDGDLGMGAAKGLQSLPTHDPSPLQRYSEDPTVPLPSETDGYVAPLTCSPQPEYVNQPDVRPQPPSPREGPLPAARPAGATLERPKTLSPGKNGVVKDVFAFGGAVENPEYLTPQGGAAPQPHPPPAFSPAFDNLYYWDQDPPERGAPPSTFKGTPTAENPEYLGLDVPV

| IC50 [1] [µM] | IC50 [2] [µM] | Compound |
| --- | --- | --- |
| 0.054 | > 10 | Cc1cc(Nc2ncnc3ccc4c(c23)OC[C@H]2CNCCN42)ccc1Oc1ccc2c(c1)ncn2C [Compound 45, (R)—N-(3-methyl-4-((1-methyl-1H-benzo[d]imidazol-5-yl)oxy)phenyl)-6,6a,7,8,9,10-hexahydropyrazino[1′,2′:4,5][1,4]oxazino[2,3-f]quinazolin-4-amine] |
| 0.0223 | > 10 | Cc1cc(Nc2ncnc3ccc4c(c23)OC[C@H]2CN(C)CCN42)ccc1Oc1ccc2c(c1)ncn2C [Compound 46, (R)-8-methyl-N-(3-methyl-4-((1-methyl-1H-benzo[d]imidazol-5-yl)oxy)phenyl)-6,6a,7,8,9,10-hexahydropyrazino[1′,2′:4,5][1,4]oxazino[2,3-f]quinazolin-4-amine] |
| 0.0912 | > 10 | Cc1cc(Nc2ncnc3ccc4c(c23)OC[C@@H]2CNCCN42)ccc1Oc1ccc2c(c1)ncn2C [Compound 47, (S)—N-(3-methyl-4-((1-methyl-1H-benzo[d]imidazol-5-yl)oxy)phenyl)-6,6a,7,8,9,10-hexahydropyrazino[1′,2′:4,5][1,4]oxazino[2,3-f]quinazolin-4-amine] |
| 0.146 | > 10 | Cc1cc(Nc2ncnc3ccc4c(c23)OC[C@@H]2CN(C)CCN42)ccc1Oc1ccc2c(c1)ncn2C [Compound 48, (S)-8-methyl-N-(3-methyl-4-((1-methyl-1H-benzo[d]imidazol-5-yl)oxy)phenyl)-6,6a,7,8,9,10-hexahydropyrazino[1′,2′:4,5][1,4]oxazino[2,3-f]quinazolin-4-amine] |
| 0.541 | > 10 | Cc1cc(Nc2ncnc3ccc4c(c23)OC[C@@H]2CN4CCN2)ccc1Oc1ccc2c(c1)ncn2C [Compound 53, (3S)—N-(3-methyl-4-((1-methyl-1H-benzo[d]imidazol-5-yl)oxy)phenyl)-3,4,5,6-tetrahydro-2H-3,7-methano[1,4,7]oxadiazonino[2,3-f]quinazolin-13-amine] |
| 0.0821 | > 10 | Cc1cc(Nc2ncnc3ccc4c(c23)OC[C@@H]2CN4CCN2C)ccc1Oc1ccc2c(c1)ncn2C [Compound 54, (3S)-4-methyl-N-(3-methyl-4-((1-methyl-1H-benzo[d]imidazol-5-yl)oxy)phenyl)-3,4,5,6-tetrahydro-2H-3,7-methano[1,4,7]oxadiazonino[2,3-f]quinazolin-13-amine] |
| 0.108 | > 10 | Cc1cc(Nc2ncnc3ccc4c(c23)OC[C@H]2CN4CCN2)ccc1Oc1ccc2c(c1)ncn2C [Compound 55, (3R)—N-(3-methyl-4-((1-methyl-1H-benzo[d]imidazol-5-yl)oxy)phenyl)-3,4,5,6-tetrahydro-2H-3,7-methano[1,4,7]oxadiazonino[2,3-f]quinazolin-13-amine] |
| 0.127 | > 10 | Cc1cc(Nc2ncnc3ccc4c(c23)OC[C@H]2CN4CCN2C)ccc1Oc1ccc2c(c1)ncn2C [Compound 56, (3R)-4-methyl-N-(3-methyl-4-((1-methyl-1H-benzo[d]imidazol-5-yl)oxy)phenyl)-3,4,5,6-tetrahydro-2H-3,7-methano[1,4,7]oxadiazonino[2,3-f]quinazolin-13-amine] |
|  | > 10 | CC(=O)N1CCN2c3ccc4ncnc(Nc5ccc(Oc6ccn7ncnc7c6)c(C)c5)c4c3OC[C@H]2C1 [Compound 109, (R)-1-(4-((4-([1,2,4]triazolo[1,5-a]pyridin-7-yloxy)-3-methylphenyl)amino)-6a,7,9,10-tetrahydropyrazino[1′,2′:4,5][1,4]oxazino[2,3-f]quinazolin-8(6H)-yl)ethan-1-one] |

More lines, now with the values behind:

| Compound | IC50 [1] [µM] | IC50 [2] [µM] |
| --- | --- | --- |
| Cc1cc(Nc2ncnc3cc4c(nc23)N2CCN(C)C[C@@H]2CO4)ccc1Oc1ccn2ncnc2c1 [Compound 36, (R)—N-(4-([1,2,4]triazolo[1,5-a]pyridin-7-yloxy)-3-methylphenyl)-3-methyl-1,2,3,4,4a,5-hexahydropyrazino[1,2-d]pyrimido[4′,5′:5,6]pyrido[3,2-b][1,4]oxazin-11-amine] | 0.234 | > 10 |
| Cc1cc(Nc2ncnc3cc4c(nc23)N2CCNC[C@H]2CO4)ccc1Oc1ccc2c(c1)ncn2C [Compound 37, (S)—N-(3-methyl-4-((1-methyl-1H-benzo[d]imidazol-5-yl)oxy)phenyl)-1,2,3,4,4a,5-hexahydropyrazino[1,2-d]pyrimido[4′,5′:5,6]pyrido[3,2-b][1,4]oxazin-11-amine] | 0.0776 | > 10 |
| Cc1cc(Nc2ncnc3cc4c(nc23)N2CCN(C)C[C@H]2CO4)ccc1Oc1ccc2c(c1)ncn2C [Compound 38, (S)-3-methyl-N-(3-methyl-4-((1-methyl-1H-benzo[d]imidazol-5-yl)oxy)phenyl)-1,2,3,4,4a,5-hexahydropyrazino[1,2-d]pyrimido[4′,5′:5,6]pyrido[3,2-b][1,4]oxazin-11-amine] | 0.0606 | > 10 |
| Cc1cc(Nc2ncnc3cc4c(nc23)N2CCNC[C@@H]2CO4)ccc1Oc1ccc2c(c1)ncn2C [Compound 39, (R)—N-(3-methyl-4-((1-methyl-1H-benzo[d]imidazol-5-yl)oxy)phenyl)-1,2,3,4,4a,5-hexahydropyrazino[1,2-d]pyrimido[4′,5′:5,6]pyrido[3,2-b][1,4]oxazin-11-amine] | 0.279 | > 10 |
| Cc1cc(Nc2ncnc3cc4c(nc23)N2CCN(C)C[C@@H]2CO4)ccc1Oc1ccc2c(c1)ncn2C [Compound 40, (R)-3-methyl-N-(3-methyl-4-((1-methyl-1H-benzo[d]imidazol-5-yl)oxy)phenyl)-1,2,3,4,4a,5-hexahydropyrazino[1,2-d]pyrimido[4′,5′:5,6]pyrido[3,2-b][1,4]oxazin-11-amine] | 0.153 | > 10 |
| Cc1cc(Nc2ncnc3ccc4c(c23)OC[C@H]2CNCCN42)ccc1Oc1ccn2ncnc2c1 [Compound 41, (R)—N-(4-([1,2,4]triazolo[1,5-a]pyridin-7-yloxy)-3-methylphenyl)-6,6a,7,8,9,10-hexahydropyrazino[1′,2′:4,5][1,4]oxazino[2,3-f]quinazolin-4-amine diformic acid] | 0.0577 | > 10 |
| Cc1cc(Nc2ncnc3ccc4c(c23)OC[C@H]2CN(C)CCN42)ccc1Oc1ccn2ncnc2c1 [Compound 42, (R)—N-(4-([1,2,4]triazolo[1,5-a]pyridin-7-yloxy)-3-methylphenyl)-8-methyl-6,6a,7,8,9,10-hexahydropyrazino[1′,2′:4,5][1,4]oxazino[2,3-f]quinazolin-4-amine] | 0.0315 | > 10 |
| Cc1cc(Nc2ncnc3ccc4c(c23)OC[C@@H]2CNCCN42)ccc1Oc1ccn2ncnc2c1 [Compound 43, (S)—N-(4-([1,2,4]triazolo[1,5-a]pyridin-7-yloxy)-3-methylphenyl)-6,6a,7,8,9,10-hexahydropyrazino[1′,2′:4,5][1,4]oxazino[2,3-f]quinazolin-4-amine] | 0.0765 | > 10 |
| Cc1cc(Nc2ncnc3ccc4c(c23)OC[C@@H]2CN(C)CCN42)ccc1Oc1ccn2ncnc2c1 [Compound 44, (S)—N-(4-([1,2,4]triazolo[1,5-a]pyridin-7-yloxy)-3-methylphenyl)-8-methyl-6,6a,7,8,9,10-hexahydropyrazino[1′,2′:4,5][1,4]oxazino[2,3-f]quinazolin-4-amine] | 0.218 | > 10 |
